Source: the OPERA property sets (Mansouri et al. 2018)

Conditions: for log10 BCF / log10 biotransformation half-life (days): fish

COC(=O)c1c(C)cc(OC(=O)c2c(C)cc(O)c(C=O)c2O)c(C)c1O
melting point: 195 °C

Nc1ccc(N)c(N)c1
boiling point: 340 °C
melting point: 97.3 °C

CS(=O)(=O)c1ccc(C(=O)C2C(=O)CCCC2=O)c(Cl)c1
log10 vapour pressure (mmHg): -7.43
melting point: 139 °C

CC(=O)c1ccc(Br)s1
melting point: 94.5 °C

COC(=O)c1sccc1N
melting point: 65 °C

CC(CC=O)CC(C)(C)C (stereo not given)
boiling point: 173 °C
log10 vapour pressure (mmHg): -1.1
ready biodegradability: not readily biodegradable

C#CCCCCCCC
boiling point: 151 °C
log10 vapour pressure (mmHg): 0.797
melting point: -50 °C

Nc1ccc(O)c([N+](=O)[O-])c1
melting point: 126 °C

CCCCCCCCCCCCCCCC[N+](C)(C)C
ready biodegradability: not readily biodegradable

O=c1[nH]c2ccccc2n1CCCN1CCC(n2c(=O)[nH]c3cc(Cl)ccc32)CC1
melting point: 242 °C

CC1=CC2CC1C1C(=O)OC(=O)C21 (stereo not given)
ready biodegradability: not readily biodegradable

CCc1cc(C)ccc1C
boiling point: 187 °C
log10 biodegradation half-life (days): 0.477
log10 vapour pressure (mmHg): -0.0272
melting point: -53.7 °C

CCCCCCCC(N)=O
boiling point: 239 °C
melting point: 108 °C

CCOc1ccc2nc(S)sc2c1
melting point: 199 °C

CC(C)NCC(O)COc1cccc2ccccc12.Cl (stereo not given)
melting point: 164 °C

O=C(O)CCCCCCCCCCCCCCC(=O)O
ready biodegradability: readily biodegradable

Nc1cc(N)cc(C(=O)O)c1
melting point: 228 °C

O=c1c(Cl)c(Cl)cnn1-c1ccccc1
log10 vapour pressure (mmHg): -4.05
melting point: 162 °C

CCCCCCCCCCCCCCCCI
log10 vapour pressure (mmHg): -4.78
melting point: 22 °C

CCC(C)C(C)C(C)=O (stereo not given)
boiling point: 158 °C

CCOC(=O)C(Cc1ccccc1)C(=O)OCC
boiling point: 300 °C

C=CCNCC=C
boiling point: 111 °C
log10 vapour pressure (mmHg): 1.31
melting point: -88.4 °C

COc1ccccc1C#N
boiling point: 256 °C
melting point: 24.5 °C

c1ccc2c(c1)OCCOCCOCCOc1ccccc1OCCOCCOCCO2
melting point: 104 °C

C=CC(O)CCC (stereo not given)
boiling point: 134 °C

COC(=O)c1cccc(Br)c1
melting point: 32 °C

CCB(Cl)CC
boiling point: 78.5 °C
melting point: -84.6 °C

CCOC(=O)Cc1cccc2ccccc12
log10 Koc (L/kg): 2.48
melting point: 88.5 °C

CC(=O)N1C[C@H](O)C[C@H]1C(=O)O
melting point: 132 °C

NCCO.O=C(Nc1ccc([N+](=O)[O-])cc1Cl)c1cc(Cl)ccc1O
melting point: 216 °C

CNCCc1ccc(O)c(O)c1
melting point: 188 °C

CCNC(N)=S
melting point: 112 °C

O=C(O)CCC(=O)c1ccc2c(c1)-c1cccc3cccc-2c13
melting point: 208 °C

CC(=O)CC(C)C
boiling point: 116 °C
log10 vapour pressure (mmHg): 1.3
melting point: -84 °C
ready biodegradability: readily biodegradable

CC(C)(C)c1cccc(C(C)(C)C)c1O
boiling point: 253 °C
melting point: 39 °C
ready biodegradability: not readily biodegradable

C1=Cc2ccccc2CC1
boiling point: 206 °C
melting point: -8 °C

CC(=O)Oc1ccc(C)cc1
boiling point: 212 °C

CC(C)[N+](C)(CCOC(=O)C1c2ccccc2Oc2ccccc21)C(C)C.[Br-]
melting point: 160 °C

Cc1c(N=C=O)cccc1N=C=O
log10 vapour pressure (mmHg): -1.68
melting point: 18.3 °C

CC(C)CCC[C@@H](C)[C@H]1CC[C@H]2[C@@H]3CC=C4C[C@@H](O)CC[C@]4(C)[C@H]3CC[C@]12C
boiling point: 360 °C
melting point: 145 °C

C=C=O
boiling point: -49.8 °C
log10 vapour pressure (mmHg): 4.02
melting point: -151 °C

N#CCCCCl
boiling point: 192 °C

Clc1c(Cl)c(Cl)c2c(c1Cl)Oc1ccccc1O2
log10 Henry constant (atm·m³/mol): -4.7
log10 Koa: 9.7
log10 vapour pressure (mmHg): -7.32
melting point: 188 °C
log10 BCF: 3.46
log10 biotransformation half-life (days): 1.02

CCNc1ccccc1
boiling point: 203 °C
log10 Henry constant (atm·m³/mol): -5.01
log10 vapour pressure (mmHg): -0.69
melting point: -63.5 °C
ready biodegradability: not readily biodegradable
log10 BCF: 1.11
log10 biotransformation half-life (days): -0.65

CCc1ccccc1Cl
boiling point: 178 °C
melting point: -82.7 °C

Clc1ccc2ccc(Cl)nc2c1
melting point: 120 °C

CC(C)I
boiling point: 89.5 °C
log10 vapour pressure (mmHg): 1.63
melting point: -90 °C

CCCCCCCCCCS
boiling point: 241 °C
log10 vapour pressure (mmHg): -1.44
melting point: -26 °C

C[C@@H]1CCC[C@H]1O
boiling point: 150 °C

O=C1C=CC(=O)c2c(Cl)cccc21
melting point: 163 °C

N#CC(Cl)Cl
boiling point: 112 °C

CC=CC(C)C(=O)O (stereo not given)
boiling point: 199 °C

O=c1cc(-c2ccccc2)oc2cc(O)ccc12
melting point: 246 °C

C=CCS
boiling point: 65 °C
log10 vapour pressure (mmHg): 2.72

CCC(C)c1cc([N+](=O)[O-])cc([N+](=O)[O-])c1OC(C)=O (stereo not given)
log10 vapour pressure (mmHg): -3.22
melting point: 26 °C

O=C(O)c1ccc2ccccc2n1
melting point: 156 °C
ready biodegradability: readily biodegradable

CCC[N+](=O)[O-]
boiling point: 131 °C
log10 Henry constant (atm·m³/mol): -4.06
log10 Koa: 3.25
log10 vapour pressure (mmHg): 1
melting point: -108 °C

O=C1C=CC(=O)N1c1ccccc1
melting point: 90.5 °C

CCCCCCc1ccc(N)cc1
boiling point: 282 °C

CCCC(O)CC(C)C (stereo not given)
boiling point: 164 °C
melting point: -81 °C

CC(C)N1C(=O)N(c2ccccc2)CSC1=NC(C)(C)C
log10 vapour pressure (mmHg): -5.03
melting point: 105 °C

N#Cc1cccs1
boiling point: 192 °C

CCCCCC(=O)Cl
boiling point: 153 °C
melting point: -87 °C

C[Si]1(c2ccccc2)O[Si](C)(c2ccccc2)O[Si](C)(c2ccccc2)O1 (stereo not given)
melting point: 100 °C

Clc1c(Cl)c(Cl)c2ccccc2c1Cl
log10 Koa: 8.3
log10 vapour pressure (mmHg): -5.54
melting point: 198 °C
log10 BCF: 3.7
log10 biotransformation half-life (days): 1.2

C[C@H](F)Cl
boiling point: 16.2 °C

O=C1c2ccccc2C(=O)C1C(=O)C(c1ccccc1)c1ccc(Cl)cc1 (stereo not given)
log10 vapour pressure (mmHg): -9.12
melting point: 140 °C

CNc1ccccn1
boiling point: 200 °C
melting point: 15 °C

Cc1cc(C)cc(C(C)(C)C)c1
boiling point: 207 °C
melting point: -18 °C

C=Cc1ccccc1
boiling point: 145 °C
log10 Henry constant (atm·m³/mol): -2.56
log10 Koc (L/kg): 2.96
log10 vapour pressure (mmHg): 0.806
melting point: -31 °C
ready biodegradability: readily biodegradable
log10 BCF: 1.13

CC1CCC(C)C1 (stereo not given)
log10 biodegradation half-life (days): 0.602

CCOc1cccc2ccccc12
boiling point: 280 °C
melting point: 5.5 °C

COc1ccc(Cc2cnc(N)nc2N)cc1OC
melting point: 233 °C

CN(C)C(=S)SSC(=S)N(C)C
log10 Koc (L/kg): 2.83
log10 vapour pressure (mmHg): -4.76
melting point: 156 °C
ready biodegradability: readily biodegradable
log10 BCF: 0.53
log10 biotransformation half-life (days): -1.18

CC(=O)O[C@]1(C(C)=O)CC[C@H]2[C@@H]3C[C@H](C)C4=CC(=O)CC[C@]4(C)[C@H]3CC[C@@]21C
melting point: 206 °C

OC[C@@H]1CCCNC1
melting point: 61 °C

CC(C)[C@@H](C)CC[C@@H](C)[C@H]1CC[C@H]2C3=CC[C@H]4C[C@@H](O)CC[C@]4(C)[C@H]3CC[C@]12C
melting point: 146 °C

C=CCCCCCCCCCCCCCCCCC
boiling point: 329 °C
log10 vapour pressure (mmHg): -4.42
melting point: 23 °C

[N-]=[N+]=CC(=O)OC[C@H](N)C(=O)O
melting point: 154 °C

COC(=O)C(Cl)Cl
boiling point: 143 °C
log10 vapour pressure (mmHg): 0.654
melting point: -51.9 °C

CC(/C=C/C=C(\C)C(=O)O[C@@H]1O[C@H](CO[C@@H]2O[C@H](CO)[C@@H](O)[C@H](O)[C@H]2O)[C@@H](O)[C@H](O)[C@H]1O)=C\C=C\C=C(C)\C=C\C=C(/C)C(=O)O[C@@H]1O[C@H](CO[C@@H]2O[C@H](CO)[C@@H](O)[C@H](O)[C@H]2O)[C@@H](O)[C@H](O)[C@H]1O
melting point: 186 °C

N#CCc1cccc(CC#N)c1
melting point: 33.5 °C

Nc1ccc(C(=O)O)c(N)c1
melting point: 140 °C

COCC(COC)OC
boiling point: 148 °C
